Experimental findings from article PMC7168327, “Designed Antimicrobial Peptides for Topical Treatment of Antibiotic Resistant Acne Vulgaris” (Antibiotics, 2020) are described below.

Molecules are shown by their SMILES. Values after ≈ are worked out from the molar mass of the structure shown. Bridge positions count the residues as written; N and C are the ends. Peptide text beside a SMILES is read from it.

The test system of assay [1] is C. acnes HL043PA2 compared to human keratinocytes. The assay is classed as cell-based. As to the method: In evaluating the clinical utility of each of the candidate dAMPs for C. acnes treatment, the Therapeutic Index was determined. The Therapeutic Index is defined as the ratio of concentration at which the dAMP is active against the prokaryotic C. acnes pathogen without inducing cytotoxic damage to the surrounding mammalian cells. The EC10 and EC50 doses, defined as the concentrations required to kill 10% and 50% respectively of human keratinocytes following 8 h incubation with each of the Riptide dAMPs, are tabulated and graphed in Table 2 and Figure 3, respectively. The larger the Therapeutic Index, the greater the specificity of the dAMP for destroying C. acnes cells.
Single colonies were inoculated in Reinforced Clostridium Medium (RCM) broth supplemented with sodium thioglycolate and incubated at 37 °C, with shaking at 200 rpm, for 2 or 3 days to reach logarithmic growth (OD600nm = 1.0). Each C. acnes (1 × 10^6 CFU per mL) was incubated with dAMP or clindamycin at two-fold serial dilutions (0.5–32 μg per mL) in RCM on a 96-well microplate for 48 h. Three replicas were included for each test article concentration. Bacterial growth was measured by optical density at 600 nm to determine the MIC for each dAMP applied.
Noninvasive and real-time monitoring of mammalian cytotoxicity to assess the potential skin toxicity of the dAMPs was evaluated using bioluminescent human immortalized keratinocytes (HaCaT, AddexBio, San Diego, CA, USA). The bioluminescent variant of HaCaT was constructed by transfection with a luciferase gene (RediFect Red-Fluc-Puromycin, Cat# CL596002). Keratinocytes (1 × 10^4 cells, 100 μL) were plated in 96-well black-walled plates. The candidate dAMPs were 2-fold serially diluted from 1024 µg/mL in growth medium supplemented with 150 µg/mL D-luciferin. Each concentration was performed in triplicate, with the final volume being 200 μL. Imaging was performed at select times (0, 15, and 30 min and 1, 3, 5, and 8 h) after the addition of the dAMP, and compared to concurrently run vehicle-control, using an IVIS Lumina imaging system (Caliper Life Sciences, Inc., Hopkinton, MA, USA). For imaging, the 96-well plate was positioned on the stage (12.5-cm field of view), with an open emission filter, binning of 4, and f-stop 1 and a 1-min exposure time. Data analysis was performed using the Living Image software program (version 4.3, Caliper Life Sciences, Inc.). The dAMP concentrations required to kill 10% and 50% of keratinocytes were determined using GraphPad Prism 7 (GraphPad Software, San Diego, CA, USA).

The subject of a further assay is C. acnes HL043PA1. The assay is classed as cell-based, Cutibacterium acnes. As to conditions: C. acnes HL043PA1; RCM broth, anaerobic, 1 × 10^6 CFU per mL, two-fold dilutions 0.5–32 μg/mL, 48 h, OD 600 nm; mean of three replicates. The procedure, abridged:
(§1)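 Colonies were grown anaerobically in RCM with sodium thioglycolate at 37 °C to log phase, then 1 × 10^6 CFU per mL were incubated 48 h with serially diluted compound (0.5–32 μg per mL). Growth at 600 nm gave the MIC.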

Another assay relates to C. acnes HL053PA1. The assay is classed as cell-based, Cutibacterium acnes. As to conditions: C. acnes HL053PA1; RCM broth, anaerobic, 1 × 10^6 CFU per mL, two-fold dilutions 0.5–32 μg/mL, 48 h, OD 600 nm; mean of three replicates. The procedure, abridged:
as §1

A further assay has as its system C. acnes HL013PA1. The assay is classed as cell-based, Cutibacterium acnes. The settings on record: C. acnes HL013PA1; RCM broth, anaerobic, 1 × 10^6 CFU per mL, two-fold dilutions 0.5–32 μg/mL, 48 h, OD 600 nm; mean of three replicates. The procedure, abridged: as §1
For the next assay, the system named is C. acnes HL056PA1. The assay is classed as cell-based, Cutibacterium acnes. As to conditions: C. acnes HL056PA1; RCM broth, anaerobic, 1 × 10^6 CFU per mL, two-fold dilutions 0.5–32 μg/mL, 48 h, OD 600 nm; mean of three replicates. The procedure, abridged:
as §1

On to `CC[C@H](C)[C@@H]1NC(=O)CNC(=O)[C@H](CCCCN)NC(=O)[C@H](Cc2ccc(O)cc2)NC(=O)[C@@H]2CSSC[C@H](NC1=O)C(=O)N[C@@H](Cc1ccc(O)cc1)C(=O)N[C@@H](CCCCN)C(=O)N[C@@H](CCCCN)C(=O)N[C@H](C(=O)N[C@@H](CCCCN)C(N)=O)CSSC[C@H](NC(=O)[C@H](Cc1c[nH]c3ccccc13)NC(=O)[C@@H](N)CCCNC(=N)N)C(=O)N[C@@H](Cc1ccccc1)C(=O)N[C@@H](CCCCN)C(=O)N[C@@H](C(C)C)C(=O)N2` [RP556] (H-RWCFKVCYKGICYKKCK-NH2; disulfide 3-16, 7-12), for which the “Therapeutic Index (EC10 / MIC)” value in assay [1] (keratinocyte EC10 (8 h) versus MIC against HL043PA2 C. acnes) was found to be 70. The “Therapeutic Index (EC50 / MIC)” value in assay [1] (keratinocyte EC50 (8 h) versus MIC against HL043PA2 C. acnes) came to 130. Further, the MIC (commonly the least concentration at which growth counts as inhibited) came to 4 µg/mL (≈ 1.86 µM) with C. acnes HL043PA1, 4 µg/mL (≈ 1.86 µM) with C. acnes HL053PA1, 2 µg/mL (≈ 0.929 µM) with C. acnes HL013PA1 and 2 µg/mL (≈ 0.929 µM) against C. acnes HL056PA1.
